Reference: US20210283261A1, “Compositions and Methods for Treating ALK-Mediated Cancer” (ICAHN SCHOOL OF MEDICINE AT MOUNT SINAI, priority 2017, published 2021)

Experiments:
Format in all cases: cell-based
NPM-ALK fusion protein = biological target: T1, NPM-ALK fusion protein (Homo sapiens, UniProt Q9UM73); assay: Western blot of NPM-ALK fusion protein levels in SU-DHL-1 cells; settings: for effect on NPM-ALK fusion protein levels, concentration dependence: SU-DHL-1 cells, 1, 3, 10, 30 or 100 nM
T1 construct: endogenous in cells; host or cells: SU-DHL-1; the other entry of the earlier key: NPM1 (P06748, Nucleophosmin)
Procedure: (§1) Cells were cultured in a 37° C. incubator with 5% CO2.
(§2) Cells were washed with cold PBS once and lysed in 1× Laemmli loading buffer directly. […] Membrane was blocked in 5% milk in Tris-buffered saline and Tween 20 (TBST) for 1 h at room temperature, followed by incubation with a primary antibody overnight at 4° C., and a horseradish peroxidase (HRP)-conjugated secondary antibody for 1 h at room temperature. The membrane was imaged by a ChemiDoc MP imaging system (BIO-RAD). Antibodies against GAPDH (abeam), Phospho-ALK (Tyr1507), ALK (Cell Signaling Technology), Tubulin (Santa Cruz) were purchased commercially.
SU-DHL-1 suspension cells were seeded in 12-well plates at a density of 6×10^5/mL and treated with DMSO or indicated compounds at 30 nM or 100 nM for indicated time.
SU-DHL-1 cells were seeded in 12-well plates at a density of 4×10^5/mL and treated with DMSO or indicated serial dilutions of compounds for 16 h. The NPM-ALK fusion protein levels were determined by Western blot and normalized against GPADH (right panel).

ALK fusion protein = biological target: T2, ALK fusion protein (Homo sapiens, UniProt Q9UM73); assay: Western blot of ALK fusion protein levels in NCI-H3122 cells; settings: for ALK fusion protein degradation, NCI-H3122 (500 nM) / significantly reduced ALK fusion protein levels (degraders vs negative controls): NCI-H3122 cells; for ALK fusion protein degradation, NCI-H3122 (500 nM) / Dmax at 0.5 µM: Western blot, 500 nM; for Dmax at 0.5 µM: NCI-H3122, NCI-H3122 cells, read-out: ALK fusion protein degradation, NCI-H3122 (500 nM)
T2 construct: endogenous in cells; host or cells: NCI-H3122; the other entry of the earlier key: EML4 (Q9HC35, Echinoderm microtubule-associated protein-like 4)

SU-DHL-1 cells = assay: Cell viability assay in SU-DHL-1 cells
Procedure: (§3) SU-DHL-1 cells were seeded in 96-well plates at a density of 1×10^4 cells per well, in triplicate. Treated cells with DMSO or indicated serial dilutions of compounds for 2.5 days. Cell growth/survival was measured by using the CellTiter-Glo luminescent cell viability assay following the manufacturer's instructions (Promega) or CCK8 cell viability assay (Sigma). Data was analyzed by using the GraphPad Prism software, Error bars represent ±SD for triplicate experiments.
as §3, with “assay.” for “assay following the manufacturer's instructions (Promega) or CCK8 cell viability assay (Sigma).”, “experiments (left panel).” for “experiments.”
SU-DHL-1 cells were seeded in 96-well plates at a density of 5000 cells per well, in triplicate. The cells were treated with DMSO or indicated serial dilutions of compounds for 3 days. Cell growth was measured using the CellTiter-Glo luminescent cell viability assay. Data were analyzed using the GraphPad Prism.
(§4) SU-DHL-1 and NCI-3122 cells were treated with DMSO or indicated serial dilutions of compounds for 3 days. Data were analyzed using the GraphPad Prism.

ALK = assay: Characterization of ALK degraders in ALCL and NSCLC cells (summary); settings: summary statement
Excerpt: Specific exemplary ALK degraders/disruptors were characterized in various different anaplastic large cell lymphoma (ALCL) cells and non-small cell lung cancer (NSCLC) cells (Examples 4-19, FIGS. 1-18). […] This efficacy in suppressing ALK expression and ALK activity correlated with efficacy in inhibiting cancer cell proliferation.

NCI-H3122 cells = assay: Cell viability assay in NCI-H3122 cells; settings: 3 days
Procedure: SU-DHL-1, NCI-H3122 and NCI-H2228 cells were cultured in RPMI-1640 medium supplemented with 10% fetal bovine serum, 50 μg/mL penicillin and streptomycin. Cells were cultured in a 37° C. incubator with 5% CO2.
as §4

[1] = biological target: T3, EML4-ALK v3 fusion protein (Homo sapiens, UniProt Q9UM73); assay: Western blot of EML4-ALK v3 fusion protein levels in NCI-H2228 cells; settings: 16 h; for effect on EML4-ALK fusion protein levels, concentration dependence: NCI-H2228 cells, 1, 3, 10, 30 or 100 nM
T3 construct: endogenous in cells; host or cells: NCI-H2228
Procedure: as §1, §2
Cells were 70% confluent and treated with DMSO or indicated serial dilutions of compounds for 16 h. The EML4-ALK fusion protein levels were determined by Western blot and normalized against GPADH (right panel).

T2 sequence (Q9UM73 with tags, fused parts or gaps): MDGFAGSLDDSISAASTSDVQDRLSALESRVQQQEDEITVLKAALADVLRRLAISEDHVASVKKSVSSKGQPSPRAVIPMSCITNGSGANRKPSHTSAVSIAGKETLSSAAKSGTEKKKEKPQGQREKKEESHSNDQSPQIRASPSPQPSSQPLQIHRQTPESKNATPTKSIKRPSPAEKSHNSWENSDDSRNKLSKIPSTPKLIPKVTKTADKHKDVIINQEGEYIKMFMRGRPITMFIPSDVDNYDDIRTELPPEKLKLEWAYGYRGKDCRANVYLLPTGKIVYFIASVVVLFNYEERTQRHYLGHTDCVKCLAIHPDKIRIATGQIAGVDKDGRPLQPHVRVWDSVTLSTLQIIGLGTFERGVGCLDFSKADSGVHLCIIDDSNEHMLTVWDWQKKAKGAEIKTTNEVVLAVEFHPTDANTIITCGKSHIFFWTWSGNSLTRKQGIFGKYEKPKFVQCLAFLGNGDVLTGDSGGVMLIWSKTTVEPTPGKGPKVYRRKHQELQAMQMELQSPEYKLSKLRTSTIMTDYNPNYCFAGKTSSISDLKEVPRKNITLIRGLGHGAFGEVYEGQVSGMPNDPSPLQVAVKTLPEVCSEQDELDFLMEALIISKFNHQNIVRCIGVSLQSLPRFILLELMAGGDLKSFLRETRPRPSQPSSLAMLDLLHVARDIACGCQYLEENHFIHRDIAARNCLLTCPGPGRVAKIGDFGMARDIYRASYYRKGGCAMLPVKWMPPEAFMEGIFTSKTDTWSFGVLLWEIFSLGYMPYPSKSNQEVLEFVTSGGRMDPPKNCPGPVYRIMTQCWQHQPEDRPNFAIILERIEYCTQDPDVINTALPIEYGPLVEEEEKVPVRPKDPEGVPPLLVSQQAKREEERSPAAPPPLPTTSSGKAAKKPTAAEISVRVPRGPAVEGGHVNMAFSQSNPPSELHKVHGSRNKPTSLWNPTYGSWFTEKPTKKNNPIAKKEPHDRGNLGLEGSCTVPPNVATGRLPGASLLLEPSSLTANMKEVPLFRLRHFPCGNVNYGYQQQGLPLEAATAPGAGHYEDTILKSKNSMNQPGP
T1 sequence (Q9UM73 with tags, fused parts or gaps): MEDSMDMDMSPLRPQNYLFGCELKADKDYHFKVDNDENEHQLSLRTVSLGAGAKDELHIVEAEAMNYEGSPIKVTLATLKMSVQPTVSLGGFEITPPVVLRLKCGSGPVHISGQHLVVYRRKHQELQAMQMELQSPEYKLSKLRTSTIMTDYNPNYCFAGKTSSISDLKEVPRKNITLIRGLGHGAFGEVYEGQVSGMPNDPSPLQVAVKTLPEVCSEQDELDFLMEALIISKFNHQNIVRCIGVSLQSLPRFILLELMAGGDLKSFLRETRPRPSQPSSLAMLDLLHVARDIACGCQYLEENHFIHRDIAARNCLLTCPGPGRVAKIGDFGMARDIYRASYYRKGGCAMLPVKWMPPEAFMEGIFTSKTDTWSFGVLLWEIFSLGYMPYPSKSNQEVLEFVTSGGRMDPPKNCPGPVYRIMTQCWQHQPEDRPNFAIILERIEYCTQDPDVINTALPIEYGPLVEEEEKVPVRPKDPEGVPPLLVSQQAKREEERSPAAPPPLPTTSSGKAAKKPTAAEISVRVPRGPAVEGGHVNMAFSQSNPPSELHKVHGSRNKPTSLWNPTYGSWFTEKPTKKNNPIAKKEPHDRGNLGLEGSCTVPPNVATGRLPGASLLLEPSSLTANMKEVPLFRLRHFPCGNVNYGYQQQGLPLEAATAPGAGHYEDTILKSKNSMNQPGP
T3 sequence (Q9UM73 1058-1620 limits assumed): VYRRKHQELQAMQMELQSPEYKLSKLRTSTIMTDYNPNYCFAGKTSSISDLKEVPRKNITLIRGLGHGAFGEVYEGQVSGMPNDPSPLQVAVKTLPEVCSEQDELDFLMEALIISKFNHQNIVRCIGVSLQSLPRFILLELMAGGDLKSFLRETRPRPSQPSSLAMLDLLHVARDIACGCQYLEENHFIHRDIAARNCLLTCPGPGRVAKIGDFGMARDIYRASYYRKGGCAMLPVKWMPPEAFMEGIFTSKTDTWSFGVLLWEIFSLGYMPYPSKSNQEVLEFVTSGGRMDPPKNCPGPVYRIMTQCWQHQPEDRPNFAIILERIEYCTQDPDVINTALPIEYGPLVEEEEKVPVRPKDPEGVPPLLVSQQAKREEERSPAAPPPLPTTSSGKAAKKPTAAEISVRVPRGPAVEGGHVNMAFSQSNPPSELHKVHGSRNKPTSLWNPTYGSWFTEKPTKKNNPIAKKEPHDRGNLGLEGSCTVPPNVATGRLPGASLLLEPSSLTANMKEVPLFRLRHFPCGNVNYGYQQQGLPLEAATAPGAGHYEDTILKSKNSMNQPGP

| Compound | significantly reduced ALK fusion protein levels (degraders vs negative controls) (NPM-ALK fusion protein; SU-DHL-1 cells, 16 h) | significantly reduced ALK fusion protein levels (degraders vs negative controls) (ALK fusion protein; 16 h) | effect on NPM-ALK fusion protein levels, concentration dependence (NPM-ALK fusion protein; 16 h) | Dmax at 0.5 µM (ALK fusion protein) | effect on EML4-ALK fusion protein levels, concentration dependence [1] | other results |
| --- | --- | --- | --- | --- | --- | --- |
| Cc1cc(Nc2ncc(Cl)c(Nc3ccccc3S(=O)(=O)C(C)C)n2)c(OC(C)C)cc1C1CCN(C(=O)COCCOCC(=O)N[C@H](C(=O)N2CC(O)C[C@H]2C(=O)NCc2ccc(-c3scnc3C)cc2)C(C)(C)C)CC1 (stereo in doubt) [HC58-110, (2S,4S)-1-((S)-2-(2-(2-(2-(4-(4-((5-Chloro-4-((2-(isopropylsulfonyl)phenyl)amino)pyrimidin-2-yl)amino)-5-isopropoxy-2-methylphenyl)piperidin-1-yl)-2-oxoethoxy)ethoxy)acetamido)-3,3-dimethylbutanoyl)-4-hydroxy-N-(4-(4-methylthiazol-5-yl)benzyl)pyrrolidine-2-carboxamide] | not | not | – | – | – | ALK fusion protein degradation, NCI-H3122 (500 nM) (ALK fusion protein): − (Protein degradation <20%) |
| Cc1cc(Nc2ncc(Cl)c(Nc3ccccc3S(=O)(=O)C(C)C)n2)c(OC(C)C)cc1C1CCN(CC(=O)NCCOCCOCCOCCOCCNc2cccc3c2C(=O)N(C2CCC(=O)NC2=O)C3=O)CC1 (centres unmarked) [CZ40-53, 2-(4-(4-((5-Chloro-4-((2-(isopropylsulfonyl)phenyl)amino)pyrimidin-2-yl)amino)-5-isopropoxy-2-methylphenyl)piperidin-1-yl)-N-(14-((2-(2,6-dioxopiperidin-3-yl)-1,3-dioxoisoindolin-4-yl)amino)-3,6,9,12-tetraoxatetradecyl)acetamide] | – | – | – | – | – | Dmax at 0.03 µM (NPM-ALK fusion protein; SU-DHL-1 cells, 30 nM, Western blot, read-out: ALK fusion protein degradation, SU-DHL-1 (30 nM)): > 80%; GI50 (SU-DHL-1 cells; Homo sapiens, 60 h, 2.5 days, CellTiter-Glo, read-out: GI50 (drug concentration that results in 50% growth inhibition)): < 40 nM; suppressing both ALK expression and ALK activity (ALK): especially effective |
| Cc1cc(Nc2ncc(Cl)c(Nc3ccccc3S(=O)(=O)C(C)C)n2)c(OC(C)C)cc1C1CCN(CC(=O)NCCCCCCCCCCC(=O)NC(C(=O)N2CC(O)CC2C(=O)NCc2ccc(-c3scnc3C)cc2)C(C)(C)C)CC1 [CZ40-94, (2S,4R)-1-((S)-2-((11-(2-(4-(4-((5-Chloro-4-((2-(isopropylsulfonyl)phenyl)amino)pyrimidin-2-yl)amino)-5-isopropoxy-2-methylphenyl)piperidin-1-yl)acetamido)undecanamido)-3,3-dimethylbutanoyl)-4-hydroxy-N-(4-(4-methylthiazol-5-yl)benzyl)pyrrolidine-2-carboxamide] | – | – | – | – | – | ALK fusion protein degradation, SU-DHL-1 (30 nM) (NPM-ALK fusion protein; SU-DHL-1 cells, 30 nM, Western blot): + (Protein degradation 20-80%) |
| Cc1cc(Nc2ncc(Cl)c(Nc3ccccc3S(=O)(=O)C(C)C)n2)c(OC(C)C)cc1C1CCN(C(=O)COCCOCC(=O)N[C@H](C(=O)N2C[C@H](O)C[C@H]2C(=O)NCc2ccc(-c3scnc3C)cc2)C(C)(C)C)CC1 [CZ47-15, (2S,4R)-1-((S)-2-(2-(2-(2-(4-(4-((5-Chloro-4-((2-(isopropylsulfonyl)phenyl)amino)pyrimidin-2-yl)amino)-5-isopropoxy-2-methylphenyl)piperidin-1-yl)-2-oxoethoxy)ethoxy)acetamido)-3,3-dimethylbutanoyl)-4-hydroxy-N-(4-(4-methylthiazol-5-yl)benzyl)pyrrolidine-2-carboxamide] | significantly reduced | significantly reduced | – | – | – | effect on ALK fusion protein levels, concentration dependence (NPM-ALK fusion protein; SU-DHL-1 cells, 0, 10, 20, 40, 80 and 160 nM, 16 h): concentration-dependently reduced; rescue of induced ALK fusion protein degradation by MG-132 and MLN4924 (NPM-ALK fusion protein; SU-DHL-1 cells, 2 h pre-treatment, then 100 nM compound for 6 h): significantly rescued; effect on ALK fusion protein levels, concentration dependence (ALK fusion protein; NCI-H3122 cells, 0, 50, 100, 200, 400 and 800 nM, 16 h): concentration-dependently reduced; ALK fusion protein degradation, NCI-H3122 (500 nM) (ALK fusion protein): ++ (Protein degradation >80%); inhibition of cell viability (SU-DHL-1 cells; 3 days): significantly inhibited; inhibition of cell viability (NCI-H3122 cells): significantly inhibited; suppressing both ALK expression and ALK activity (ALK): especially effective |
| Cc1cc(Nc2ncc(Cl)c(Nc3ccccc3S(=O)(=O)C(C)C)n2)c(OC(C)C)cc1C1CCN(CC(=O)NCCNc2cccc3c2C(=O)N(C2CCC(=O)N(C)C2=O)C3=O)CC1 (stereo not drawn) [CZ47-40, 2-(4-(4-((5-Chloro-4-((2-(isopropylsulfonyl)phenyl)amino)pyrimidin-2-yl)amino)-5-isopropoxy-2-methylphenyl)piperidin-1-yl)-N-(2-((2-(l-methyl-2,6-dioxopiperidin-3-yl)-1,3-dioxoisoindolin-4-yl)amino)ethyl)acetamide] | – | – | no significant effect | < 20% | no significant effect | – |
| Cc1cc(Nc2ncc(Cl)c(Nc3ccccc3S(=O)(=O)C(C)C)n2)c(OC(C)C)cc1C1CCN(CC(=O)NCCOCCOCCOCCOCCOCCNc2cccc3c2C(=O)N(C2CCC(=O)N(C)C2=O)C3=O)CC1 (stereo not drawn) [CZ47-48, 2-(4-(4-((5-Chloro-4-((2-(isopropylsulfonyl)phenyl)amino)pyrimidin-2-yl)amino)-5-isopropoxy-2-methylphenyl)piperidin-1-yl)-N-(17-((2-(l-methyl-2,6-dioxopiperidin-3-yl)-1,3-dioxoisoindolin-4-yl)amino)-3,6,9,12,15-pentaoxaheptadecyl)acetamide] | – | – | no significant effect | < 20% | no significant effect | – |
| Cc1cc(Nc2ncc(Cl)c(Nc3ccccc3S(=O)(=O)C(C)C)n2)c(OC(C)C)cc1C1CCN(C(=O)CCCC(=O)N[C@H](C(=O)N2C[C@@H](O)C[C@H]2C(=O)NCc2ccc(-c3scnc3C)cc2)C(C)(C)C)CC1 [HC58-111, (2S,4S)-1-((S)-2-(5-(4-(4-((5-Chloro-4-((2-(isopropylsulfonyl)phenyl)amino)pyrimidin-2-yl)amino)-5-isopropoxy-2-methylphenyl)piperidin-1-yl)-5-oxopentanamido)-3,3-dimethylbutanoyl)-4-hydroxy-N-(4-(4-methylthiazol-5-yl)benzyl)pyrrolidine-2-carboxamide] | not | not | – | < 20% | – | – |
| Cc1cc(Nc2ncc(Cl)c(Nc3ccccc3S(=O)(=O)C(C)C)n2)c(OC(C)C)cc1C1CCN(C(=O)CCCCC(=O)N[C@H](C(=O)N2C[C@@H](O)C[C@H]2C(=O)NCc2ccc(-c3scnc3C)cc2)C(C)(C)C)CC1 [HC58-112, (2S,4S)-1-((S)-2-(6-(4-(4-((5-chloro-4-((2-(isopropylsulfonyl)phenyl)amino)pyrimidin-2-yl)amino)-5-isopropoxy-2-methylphenyl)piperidin-1-yl)-6-oxohexanamido)-3,3-dimethylbutanoyl)-4-hydroxy-N-(4-(4-methylthiazol-5-yl)benzyl)pyrrolidine-2-carboxamide] | not | not | – | < 20% | – | – |
| Cc1cc(Nc2ncc(Cl)c(Nc3ccccc3S(=O)(=O)C(C)C)n2)c(OC(C)C)cc1C1CCNCC1 [ceritinib, reference compound] | – | – | no significant effect | – | no significant effect | effect on NPM-ALK fusion protein levels (NPM-ALK fusion protein; SU-DHL-1 cells, 30 nM or 100 nM): no effect; effect on ALK protein levels ([1]; NCI-H2228 cells, 100 nM): no distinct effect |
